Experimental data taken from patent publication US6660494B2 (priority 2000, dated 2003).
“Also recorded” adds a separate entry of the source. Like-named read-outs stand apart in the source and are kept apart here.

Tests used:
[1] = target: PC-PLC of Clostridium perfringens (Clostridium perfringens, UniProt P0C216); assay type: biochemical
[2] = target: PC-PLC from Clostridium perfringens (Clostridium perfringens, UniProt P0C216); assay type: biochemical
solubility in water = assay type: physicochemical
[3] = stability on storage, in buffer solutions and in plating media; assay type: physicochemical; settings: for stability in conventional buffer solutions: citrate/hydrochloric acid, Hepes/NaOH, Tris/HCl, boric acid/potassium chloride-sodium hydroxide, pH about 4 to about 10, ambient temperature; for stability in conventional plating media: e.g. Tryptic Soy Agar; for storage stability: temperatures below about 5° C., protected from light

Sequence of PC-PLC from Clostridium perfringens (P0C216 29-398 limits assumed): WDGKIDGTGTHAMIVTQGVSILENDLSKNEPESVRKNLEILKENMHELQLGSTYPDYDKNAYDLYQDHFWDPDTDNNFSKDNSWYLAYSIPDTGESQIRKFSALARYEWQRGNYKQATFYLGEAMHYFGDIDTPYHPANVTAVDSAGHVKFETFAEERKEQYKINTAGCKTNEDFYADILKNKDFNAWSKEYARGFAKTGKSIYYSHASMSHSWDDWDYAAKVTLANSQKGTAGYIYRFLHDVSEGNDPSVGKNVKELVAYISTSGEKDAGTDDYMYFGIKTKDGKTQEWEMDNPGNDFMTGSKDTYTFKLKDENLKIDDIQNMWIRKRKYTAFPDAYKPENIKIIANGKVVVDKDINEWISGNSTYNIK
Sequence of PC-PLC of Clostridium perfringens (P0C216 29-398 limits assumed): as above

C[N+](C)(C)CCOP(=O)([O-])Oc1c[nH]c2ccc(Br)c(Cl)c12 [X-CP, 5-bromo-4-chloro-3-indoxyl choline phosphate]
additional effect on cleavage rate when these detergents/surfactants are combined with BSA [1]: no additional enhancement | effect of detergent/surfactant additive on cleavage rate of the enzyme [1]: slight enhancement | color of the solution ([1]; pH 7): Bluish; also recorded: Colorless; also recorded: Pale blue; also recorded: Light blue; also recorded: Colorless* | Vmax [2]: 93.6 nMol min^−1 (μg enzyme)^−1 and ≈ 94 μMol min^−1 (mg enzyme)^−1 | Vmax (rate of cleavage under saturating conditions) [2]: 312 nmol/min | cleavage at 60° C. versus ambient temperature, times faster [2]: approximately 160 | factor of increase of enzymatic activity for every 10° C. of rise in temperature [2]: 3-4 | Rate ([2]; 22° C.): 0.65 nmol/min | Specific Activity ([2]; 22° C.): 0.1 µmol/min/mg | Rate ([2]; 41° C.): 8.1 nmol/min | Specific Activity ([2]; 41° C.): 1.2 µmol/min/mg | Rate ([2]; 46° C.): 19.7 nmol/min | Specific Activity ([2]; 46° C.): 3.0 µmol/min/mg | Rate ([2]; 51° C.): 25.8 nmol/min | Specific Activity ([2]; 51° C.): 3.9 µmol/min/mg | Rate ([2]; 55° C.): 48.5 nmol/min | Specific Activity ([2]; 55° C.): 7.3 µmol/min/mg | Rate ([2]; 60° C.): 106.8 nmol/min | Specific Activity ([2]; 60° C.): 16.0 µmol/min/mg | Km ([2]; read-out: Km (Michaelis-Menten constant)): ~42 mM | solubility in water (solubility in water): freely soluble in water | stability in conventional buffer solutions [3]: at least ten days | stability in conventional plating media [3]: stable | storage stability [3]: stable during extended periods of time

C[N+](C)(C)CCOP(=O)([O-])Oc1c[nH]c2ccccc12 [Y-CP, 3-indoxylcholine phosphate]
solubility in water (solubility in water): freely soluble in water | stability in conventional buffer solutions [3]: at least ten days | stability in conventional plating media [3]: stable | storage stability [3]: stable during extended periods of time
